# In patent US8134015B2, “Compound inhibiting in vivo phosphorous transport and medicine containing the same” (Kyowa Hakko Kirin Co., Ltd., priority 2003, dated 2012):
# Target: T1, rat NaPi-2b (Rattus norvegicus, UniProt Q9JJ09)
# T1 construct: expressed in transfected cells; host or cells: Xenopus oocytes injected with cRNA
# T1 sequence (Q9JJ09 1-695): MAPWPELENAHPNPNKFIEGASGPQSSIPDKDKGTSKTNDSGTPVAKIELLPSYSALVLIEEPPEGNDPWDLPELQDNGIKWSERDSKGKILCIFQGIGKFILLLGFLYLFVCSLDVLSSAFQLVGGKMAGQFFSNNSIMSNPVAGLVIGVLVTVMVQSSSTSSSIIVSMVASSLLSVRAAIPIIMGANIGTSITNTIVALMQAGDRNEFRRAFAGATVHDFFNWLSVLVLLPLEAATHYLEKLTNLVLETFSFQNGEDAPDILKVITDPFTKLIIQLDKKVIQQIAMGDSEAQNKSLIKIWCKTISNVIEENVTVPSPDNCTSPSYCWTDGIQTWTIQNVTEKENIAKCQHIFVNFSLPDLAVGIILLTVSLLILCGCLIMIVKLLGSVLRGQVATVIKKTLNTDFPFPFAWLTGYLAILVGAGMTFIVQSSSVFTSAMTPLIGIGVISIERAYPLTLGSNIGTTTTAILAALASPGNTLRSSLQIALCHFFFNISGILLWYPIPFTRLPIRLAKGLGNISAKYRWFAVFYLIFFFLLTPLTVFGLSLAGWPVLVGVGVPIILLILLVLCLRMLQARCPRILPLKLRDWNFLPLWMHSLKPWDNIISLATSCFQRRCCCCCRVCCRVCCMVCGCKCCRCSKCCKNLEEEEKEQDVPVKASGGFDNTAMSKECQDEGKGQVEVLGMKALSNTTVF
# Assay: Sodium-dependent phosphate uptake of Xenopus oocytes which expressed NaPi-2b (32P)
# Assay type: cell-based
# Conditions: Xenopus oocytes expressing rat NaPi-2b, 32P radioactive phosphorus; read-out: IC50 (phosphate uptake inhibitory activity)
# Procedure, shortened: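 Oocytes injected with rat NaPi-2b cRNA, cultured 2 d, then 32P uptake measured with compound. Values: % inhibition at 300 and 100 μM, both from one inhibition curve.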
row,SMILES,IC50 [µM]
1,"Cc1ccc(/C=N/NC(=O)c2cc3ccccc3cc2NC(=O)c2cccc(CN3CCN(CCO)CC3)c2)cc1 [Compound 970, 3-[4-(2-Hydroxy-ethyl)-piperazin-1-ylmethyl]-N-[3-(4-methyl-benzylidene-hydrazinocarbonyl)-naphthalen-2-yl]-benzamide]",< 3
2,"Cc1ccc(/C=N/n2c(-c3cccc(CSCCO)c3)nc3ccc(Br)cc3c2=O)cc1 [Compound 696, 6-Bromo-2-[3-(2-hydroxy-ethylsulfanylmethyl)-phenyl]-3-[(4-methyl-benzylidene-)-amino]-3H-quinazolin-4-one]",4.47
3,"COc1ccc(/C=N/NC(=O)c2cc3ccccc3cc2NC(=O)c2cccc(CN(CC(C)O)CC(C)O)c2)cc1 (stereo not drawn) [Compound 963, 3-{[Bis-(2-hydroxy-propyl)-amino]-methyl}-N-[3-(4-methoxy-benzylidene-hydrazinocarbonyl)-naphthalen-2-yl]-benzamide]",< 1
4,"Cc1cccc(/C=N/NC(=O)c2cc(Cl)ccc2NC(=O)c2cccc(CN3CCC(N4CCCCC4)CC3)c2)c1 [Compound 370, 3-[1,4′]Bipiperidinyl-1′-ylmethyl-N-[4-chloro-2-(3-methyl-benzylidene-hydrazinocarbonyl)-phenyl]-benzamide]",1.86
5,"CC(O)CN(Cc1cccc(C(=O)Nc2cc3ccccc3cc2C(=O)N/N=C/c2ccc(Cl)c(C(F)(F)F)c2)c1)CC(C)O (stereo not drawn) [Compound 962, 3-{[Bis-(2-hydroxy-propyl)-amino]-methyl}-N-[3-(4-chloro-3-trifluoromethyl-benzylidene-hydrazinocarbonyl)-naphthalen-2-yl]-benzamide]",< 1
6,"O=C(Nc1ccc(Br)cc1C(=O)N/N=C/c1ccc(Cl)c(C(F)(F)F)c1)c1ccc(CNCCCN(CCO)CCO)cc1 [Compound 302, 4-({3-[Bis-(2-hydroxy-ethyl)-amino]-propylamino}-methyl)-N-[4-bromo-2-(4-chloro-3-trifluoromethyl-benzylidene-hydrazinocarbonyl)-phenyl]-benzamide]",1.12
7,"COc1cc(OC)cc(C(=O)Nc2ccccc2C(=O)N/N=C/c2ccc(C)c(C)c2)c1 [Compound 93, N-[2-(3,4-Dimethyl-benzylidene-hydrazinocarbonyl)-phenyl]-3,5-dimethoxy-benzamide]",11
8,"CCN(CC)CCNCc1cccc(C(=O)Nc2scc(C)c2C(=O)N/N=C/c2ccc(C)cc2)c1 [Compound 582, 3-[(2-Diethylamino-ethylamino)-methyl]-N-[4-methyl-3-(4-methyl-benzylidene-hydrazinocarbonyl)-thiophen-2-yl]-benzamide]",< 3
9,"Cc1cccc(/C=N/NC(=O)c2cc(Cl)ccc2NC(=O)c2cccnc2)c1 [Compound 186, N-[4-Chloro-2-(3-methyl-benzylidene-hydrazinocarbonyl)-phenyl]-nicotinamide]",10.1
10,"Cc1ccc(/C=N/NC(=O)c2cc(OCCCCF)ccc2NC(=O)c2cccc(CSCCO)c2)cc1 [Compound 1052, N-[4-(4-Fluoro-butoxy)-2-(4-methyl-benzylidene-hydrazinocarbonyl)-phenyl]-3-(2-hydroxy-ethylsulfanylmethyl)-benzamide]",1.33
11,"COc1ccc(C(=O)Nc2ccccc2C(=O)N/N=C/c2cccc(C)c2)cc1 [Compound 49, 4-Methoxy-N-[2-(3-methyl-benzylidene-hydrazinocarbonyl)-phenyl]-benzamide]",3.37
12,"Cc1csc(NC(=O)c2cccc(CN3CCN(CCO)CC3)c2)c1C(=O)N/N=C/c1ccc(Cl)c(C(F)(F)F)c1 [Compound 579, N-[3-(4-Chloro-3-trifluoromethyl-benzylidene-hydrazinocarbonyl)-4-methyl-thiophen-2-yl]-3-[4-(2-hydroxy-ethyl)-piperazin-1-ylmethyl]-benzamide]",< 3
13,"Cc1ccc(/C=N/NC(=O)c2cc(Cl)ccc2NC(=O)c2ccncc2)cc1C [Compound 193, N-[4-Chloro-2-(3,4-dimethyl-benzylidene-hydrazinocarbonyl)-phenyl]-isonicotinamide]",4.21
14,"COc1cccc(/C=N/NC(=O)c2cc(Cl)ccc2NC(=O)c2cccc(CN(CCO)CCO)c2)c1 [Compound 408, 3-{[Bis-(2-hydroxy-ethyl)-amino]-methyl}-N-[4-chloro-2-(3-methoxy-benzylidene-hydrazinocarbonyl)-phenyl]-benzamide]",0.69
15,"CC(O)CN(Cc1cccc(C(=O)Nc2cc3ccccc3cc2C(=O)N/N=C/c2cccc(F)c2)c1)CC(C)O (stereo not drawn) [Compound 959, 3-{[Bis-(2-hydroxy-propyl)-amino]-methyl}-N-[3-(3-fluoro-benzylidene-hydrazinocarbonyl)-naphthalen-2-yl]-benzamide]",< 1
16,"CCc1ccc(C(=O)Nc2ccc(Br)cc2C(=O)N/N=C/c2cccc(C)c2)cc1 [Compound 180, N-[4-Bromo-2-(3-methyl-benzylidene-hydrazinocarbonyl)-phenyl]-4-ethyl-benzamide]",< 3
17,"Cc1cccc(/C=N/NC(=O)c2cc(Cl)ccc2NC(=O)c2ccncc2)c1 [Compound 191, N-[4-Chloro-2-(3-methyl-benzylidene-hydrazinocarbonyl)-phenyl]-isonicotinamide]",12.1
18,"O=C(Nc1sc2c(c1C(=O)N/N=C/c1ccc(Cl)c(C(F)(F)F)c1)CCCC2)c1cccc(CN2CCC(CO)CC2)c1 [Compound 643, N-[3-(4-Chloro-3-trifluoromethyl-benzylidene-hydrazinocarbonyl)-4,5,6,7-tetrahydro-benzo[b]thiophen-2-yl]-3-(4-hydroxymethyl-piperidin-1-ylmethyl)-benzamide]",3.68
19,"CCN(CC)CCN(C)Cc1cccc(C(=O)Nc2ccc(OCC3CCCCC3)cc2C(=O)N/N=C/c2ccc(Cl)c(C(F)(F)F)c2)c1 [Compound 1049, N-[2-(4-Chloro-3-trifluoromethyl-benzylidene-hydrazinocarbonyl)-4-cyclohexylmethoxy-phenyl]-3-{[(2-diethylamino-ethyl)-methyl-amino]-methyl}-benzamide]",< 1
20,"O=C(Nc1ccc(N2CCCCC2)cc1C(=O)N/N=C/c1ccc(F)cc1)c1cccc(CN2CCN(CCO)CC2)c1 [Compound 866, N-[2-(4-Fluoro-benzylidene-hydrazinocarbonyl)-4-piperidin-1-yl-phenyl]-3-[4-(2-hydroxy-ethyl)-piperazin-1-ylmethyl]-benzamide]",1.92
21,"Cc1ccc(/C=N/NC(=O)c2cc(Br)ccc2NC(=O)c2ccc(CNCCCN(CCO)CCO)cc2)cc1C [Compound 300, 4-({3-[Bis-(2-hydroxy-ethyl)-amino]-propylamino}-methyl)-N-[4-bromo-2-(3,4-dimethyl-benzylidene-hydrazinocarbonyl)-phenyl]-benzamide]",1.92
22,"CCN(CC)CCN(C)Cc1cccc(C(=O)Nc2c(C)csc2C(=O)N/N=C/c2ccc(C)cc2)c1 [Compound 343, 3-{[(2-Diethylamino-ethyl)-methyl-amino]-methyl}-N-[4-methyl-2-(4-methyl-benzylidene-hydrazinocarbonyl)-thiophen-3-yl]-benzamide]",124
23,"Cc1csc(NC(=O)c2cccc(CSCCCO)c2)c1C(=O)N/N=C/c1cccc(F)c1 [Compound 560, N-[3-(3-Fluoro-benzylidene-hydrazinocarbonyl)-4-methyl-thiophen-2-yl]-3-(3-hydroxy-propylsulfanylmethyl)-benzamide]",1.09

# Same assay, conditions: phosphate uptake, oocytes expressing rat NaPi-2b; 300 μM, determined from inhibition curve
row,SMILES,inhibition at 300 µM [%]
1,"Cc1ccc(/C=N/NC(=O)c2cc(Cl)ccc2NC(=O)c2cccc(CN(C)CCCCCCN(C)Cc3cccc(C(=O)Nc4ccc(Cl)cc4C(=O)N/N=C/c4ccc(C)cc4)c3)c2)cc1 [Compound 706, N1-[4-Chloro-2-({2-[(E)-1-(4-methylphenyl)methylidene]hydrazino}carbonyl}phenyl}-3-{[{6-[(3-{[4-chloro-2-({2-[(E)-1-(4-methylphenyl)methylidene]hydrazino}carbonyl}-anilino}carbonyl}benzyl}(methyl)amino)hexyl)(methyl)amino]methyl]-benzamide]",47.8
2,"COc1ccc(/C=N/NC(=O)c2scc(C)c2NC(=O)c2cccc(CN3CCC(O)CC3)c2)cc1 [Compound 543, 3-(4-Hydroxy-piperidin-1-ylmethyl)-N-[2-(4-methoxy-benzylidene-hydrazinocarbonyl)-4-methyl-thiophen-3-yl]-benzamide]",30.2
3,"CN(C)CCn1nnnc1SCc1cccc(C(=O)Nc2ccc(Cl)cc2C(=O)N/N=C/c2ccc(O)cc2)c1 [Compound 471, N-[4-Chloro-2-(4-hydroxy-benzylidene-hydrazinocarbonyl)-phenyl]-3-[1-(2-dimethylamino-ethyl)-1H-tetrazol-5-ylsulfanylmethyl]-benzamide]",51
4,"CCN(CC)CCN(C)Cc1cccc(C(=O)Nc2c(C)csc2C(=O)N/N=C/c2ccc(OC)cc2)c1 [Compound 530, 3-{[(2-Diethylamino-ethyl)-methyl-amino]-methyl}-N-[2-(4-methoxy-benzylidene-hydrazinocarbonyl)-4-methyl-thiophen-3-yl]-benzamide]",38.2
